Key:
SARS-CoV-2 [1] = type: cell-based; details: Calu3 cells; for reduction of the cytopathic effect caused by viral infection: Data series 1, SARS-CoV-2, 10 and 1 μM, compared with mock and infected; for inhibitory effects on the virus-induced cytopathic effect: Data series 2, concentrations 10 μM-0.3125 μM
SARS-CoV-2 [2] = type: cell-based; details: 48 hours post-infection, DAPI+ cell count

SMILES	reduction of the cytopathic effect caused by viral infection (SARS-CoV-2 [1])	inhibitory effects on the virus-induced cytopathic effect (SARS-CoV-2 [1])	concentration from which positive effects on the total number or survival of Calu3 cells after SARS-CoV-2 infection occur (SARS-CoV-2 [2])	positive effects on the total number or survival of Calu3 cells after SARS-CoV-2 infection (SARS-CoV-2 [2])
Cc1sc2c(c1C)C(c1ccc(Cl)cc1)=N[C@@H](CC(N)=O)c1nnc(C)n1-2 [CPI203]	significant reduction	still evident even at the lowest concentrations	approximately 20 nM	–
COc1cc2c(cc1-c1c(C)noc1C)ncc1[nH]c(=O)n([C@H](C)c3ccccn3)c12 [IBET151]	significant reduction	still evident even at the lowest concentrations	approximately 20 nM	–
CCN(CCO)CCCC(C)Nc1ccnc2cc(Cl)ccc12 (stereo not drawn) [hydroxychloroquine, Hydroxychloroquine]	no inhibitory effects	–	–	not observed
CN(C)C(=O)c1cc2cnc(Nc3ccc(N4CCNCC4)cn3)nc2n1C1CCCC1 [ribociclib, Ribociclib]	no inhibitory effects	–	–	–

— patent publication US20230084839A1, “ACTIVE AGENTS AGAINST CORONAVIRUS INFECTIONS AND DISEASES CAUSED THEREBY” (Eberhard Karls Universität Tübigen Medizinische Fakultät, priority 2020, published 2023)
